Consider 52 compounds from ChEMBL document CHEMBL3227948, “Preparation and antidiabetic activity of some sulfonylurea derivatives of 3,5-disubstituted pyrazoles” (1979).

The term inhibition in vivo denotes the relative decrease from the control value, in per cent.

Bounds are passed on as bounds.

The first experiment relates to Mus musculus. Kind of experiment: Hypoglycemic activity in alloxan-induced diabetic albino mouse assessed as decrease in blood glucose level at 0.4 mmol/kg, po administered 6 days after alloxan injection measured after 2 to 4 hrs by automated glucose oxidase method relative to control. The experiment is classed as functional.
`Cc1cc(C(=O)O)nn1-c1ccc(S(=O)(=O)NC(=S)NC2CCCCC2)cc1`: the inhibition in vivo at 400 µmol/kg is 1%.

In the case of `CCNC(=O)NS(=O)(=O)c1ccc(-n2nc(C(=O)O)cc2C)cc1`, the inhibition in vivo at 400 µmol/kg is 0%.

As for `CCCCNC(=S)NS(=O)(=O)c1ccc(-n2nc(C(=O)O)cc2C)cc1`, the inhibition in vivo at 400 µmol/kg is less than 1%.

On to `C=CCNC(=S)NS(=O)(=O)c1ccc(-n2nc(C(=O)O)cc2C)cc1`, for which the inhibition in vivo at 400 µmol/kg was -6%.

As for `Cc1cc(C(=O)O)nn1-c1ccc(S(=O)(=O)NC(=S)Nc2ccccc2)cc1`, the inhibition in vivo at 400 µmol/kg was found to be 0%.

Take `CCCCNC(=O)NS(=O)(=O)c1ccc(-n2nc(C)cc2C)cc1`: the inhibition in vivo at 400 µmol/kg turned out to be 2%.

Consider `Cc1cc(C(=O)O)nn1-c1ccc(S(=O)(=O)NC(=O)NC2CCCCC2)cc1`, for which the inhibition in vivo at 400 µmol/kg came to 1%.

`Cc1cc(C)n(-c2ccc(S(=O)(=O)NC(=O)NC3CCCCC3)cc2)n1`: the inhibition in vivo at 400 µmol/kg worked out at 10%.

Take `CCNC(=O)NS(=O)(=O)c1ccc(-n2nc(C)cc2C)cc1`: the inhibition in vivo at 400 µmol/kg is less than 1%.

Turning to `Cc1cc(C)n(-c2ccc(S(=O)(=O)NC(=O)NCc3ccccc3)cc2)n1`, the inhibition in vivo at 400 µmol/kg is less than 1%.

`Cc1cc(C(=O)O)nn1-c1ccc(S(=O)(=O)NC(=S)NCc2ccccc2)cc1`: the inhibition in vivo at 400 µmol/kg is less than 2%.

With `C=CCNC(=S)NS(=O)(=O)c1ccc(-n2nc(C)cc2C)cc1`, the inhibition in vivo at 400 µmol/kg is -1%.

Turning to `Cc1cc(C(=O)O)nn1-c1ccc(S(=O)(=O)NC(=O)NCc2ccccc2)cc1`, the inhibition in vivo at 400 µmol/kg is 0%.

As for `CCCNC(=O)NS(=O)(=O)c1ccc(-n2nc(C)cc2C)cc1`, the inhibition in vivo at 400 µmol/kg is less than 1%.

Take `CCCNC(=S)NS(=O)(=O)c1ccc(-n2nc(C)cc2C)cc1`: the inhibition in vivo at 400 µmol/kg is less than 1%.

Take `CCNC(=S)NS(=O)(=O)c1ccc(-n2nc(C(=O)O)cc2C)cc1`: the inhibition in vivo at 400 µmol/kg is -2%.

Take `Cc1cc(C)n(-c2ccc(S(=O)(=O)NC(=S)Nc3ccccc3)cc2)n1`: the inhibition in vivo at 400 µmol/kg was -3%.

With `CCCCNC(=S)NS(=O)(=O)c1ccc(-n2nc(C)cc2C)cc1`, the inhibition in vivo at 400 µmol/kg turned out to be 1%.

`CCCCNC(=O)NS(=O)(=O)c1ccc(-n2nc(C(=O)O)cc2C)cc1`: the inhibition in vivo at 400 µmol/kg amounted to 2%.

For `Cc1cc(C)n(-c2ccc(S(=O)(=O)NC(=S)NC3CCCCC3)cc2)n1`, the inhibition in vivo at 400 µmol/kg is less than 2%.

`CCCNC(=O)NS(=O)(=O)c1ccc(-n2nc(C(=O)O)cc2C)cc1`: the inhibition in vivo at 400 µmol/kg amounted to 1%.

As to `CCNC(=S)NS(=O)(=O)c1ccc(-n2nc(C)cc2C)cc1`, the inhibition in vivo at 400 µmol/kg was found to be 0%.

For the compound `Cc1cc(C)n(-c2ccc(S(=O)(=O)NC(=O)NNC(=N)N)cc2)n1`, the inhibition in vivo at 400 µmol/kg is 3%.

Turning to `Cc1cc(C)n(-c2ccc(S(=O)(=O)NC(=S)NCc3ccccc3)cc2)n1`, the inhibition in vivo at 400 µmol/kg worked out at 0%.

As to `CCCNC(=S)NS(=O)(=O)c1ccc(-n2nc(C(=O)O)cc2C)cc1`, the inhibition in vivo at 400 µmol/kg was less than 1%.

A further experiment concerns Mus musculus. Description: Hypoglycemic activity in alloxan-induced diabetic albino mouse assessed as decrease in blood glucose level at 1 mmol/kg, po administered 6 days after alloxan injection measured after 1 to 3 hrs by automated glucose oxidase method relative to control. The experiment is classed as functional.
Take `CCN1C(=O)CCN(S(=O)(=O)c2ccc(-n3nc(C)cc3C)cc2)C1=S`: the inhibition in vivo at 1000 µmol/kg turned out to be 4%.

In the case of `CCN1C(=O)CCN(S(=O)(=O)c2ccc(-n3nc(C(=O)O)cc3C)cc2)C1=S`, the inhibition in vivo at 1000 µmol/kg stood at 1%.

For `CCCCN1C(=O)CCN(S(=O)(=O)c2ccc(-n3nc(C)cc3C)cc2)C1=S`, the inhibition in vivo at 1000 µmol/kg was 1%.

Take `N=C(N)NC(=N)NCCc1ccccc1` [PHENFORMIN]: the inhibition in vivo at 1000 µmol/kg was determined as 21%.

In the case of `CCCCN1C(=O)CCN(S(=O)(=O)c2ccc(-n3nc(C(=O)O)cc3C)cc2)C1=S`, the inhibition in vivo at 1000 µmol/kg was found to be 2%.

`C=CCN1C(=O)CCN(S(=O)(=O)c2ccc(-n3nc(C(=O)O)cc3C)cc2)C1=S`: the inhibition in vivo at 1000 µmol/kg came to 0%.

Consider `CCCN1C(=O)CCN(S(=O)(=O)c2ccc(-n3nc(C(=O)O)cc3C)cc2)C1=S`, for which the inhibition in vivo at 1000 µmol/kg was less than 1%.

`Cc1cc(C(=O)O)nn1-c1ccc(S(=O)(=O)N2CCC(=O)N(c3ccccc3)C2=S)cc1`: the inhibition in vivo at 1000 µmol/kg turned out to be 1%.

Consider `Cc1cc(C)n(-c2ccc(S(=O)(=O)N3CCC(=O)N(C4CCCCC4)C3=S)cc2)n1`, for which the inhibition in vivo at 1000 µmol/kg turned out to be 4%.

With `Cc1cc(C)n(-c2ccc(S(=O)(=O)N3CCC(=O)N(Cc4ccccc4)C3=S)cc2)n1`, the inhibition in vivo at 1000 µmol/kg worked out at 18%.

As for `Cc1cc(C(=O)O)nn1-c1ccc(S(=O)(=O)N2CCC(=O)N(Cc3ccccc3)C2=S)cc1`, the inhibition in vivo at 1000 µmol/kg worked out at 16%.

As for `CCCN1C(=O)CCN(S(=O)(=O)c2ccc(-n3nc(C)cc3C)cc2)C1=S`, the inhibition in vivo at 1000 µmol/kg worked out at 1%.

Consider `Cc1cc(C)n(-c2ccc(S(=O)(=O)N3CCC(=O)N(c4ccccc4)C3=S)cc2)n1`, for which the inhibition in vivo at 1000 µmol/kg was less than 1%.

Take `Cc1cc(C(=O)O)nn1-c1ccc(S(=O)(=O)N2CCC(=O)N(C3CCCCC3)C2=S)cc1`: the inhibition in vivo at 1000 µmol/kg stood at 2%.

The next experiment relates to Mus musculus. Kind of experiment: Hypoglycemic activity in alloxan-induced diabetic albino mouse assessed as decrease in blood glucose level at 1 mmol/kg, po administered 6 days after alloxan injection measured after 2 to 4 hrs by automated glucose oxidase method relative to control. It is filed as functional.
On to `CCN1C(=O)CN(S(=O)(=O)c2ccc(-n3nc(C)cc3C)cc2)C1=S`, for which the inhibition in vivo at 1000 µmol/kg is less than 1%.

Take `CCCCN1C(=O)CN(S(=O)(=O)c2ccc(-n3nc(C(=O)O)cc3C)cc2)C1=S`: the inhibition in vivo at 1000 µmol/kg was 1%.

Turning to `C=CCN1C(=O)CN(S(=O)(=O)c2ccc(-n3nc(C)cc3C)cc2)C1=S`, the inhibition in vivo at 1000 µmol/kg amounted to 4%.

For the compound `CCCN1C(=O)CN(S(=O)(=O)c2ccc(-n3nc(C(=O)O)cc3C)cc2)C1=S`, the inhibition in vivo at 1000 µmol/kg stood at 1%.

For the compound `C=CCN1C(=O)CN(S(=O)(=O)c2ccc(-n3nc(C(=O)O)cc3C)cc2)C1=S`, the inhibition in vivo at 1000 µmol/kg was less than 1%.

With `N=C(N)NC(=N)NCCc1ccccc1` [PHENFORMIN], the inhibition in vivo at 1000 µmol/kg came out at 21%.

Regarding `Cc1cc(C)n(-c2ccc(S(=O)(=O)N3CC(=O)N(C4CCCCC4)C3=S)cc2)n1`, the inhibition in vivo at 1000 µmol/kg came out at 2%.

On to `Cc1cc(C)n(-c2ccc(S(=O)(=O)N3CC(=O)N(Cc4ccccc4)C3=S)cc2)n1`, for which the inhibition in vivo at 1000 µmol/kg came out at 1%.

As for `CCN1C(=O)CN(S(=O)(=O)c2ccc(-n3nc(C(=O)O)cc3C)cc2)C1=S`, the inhibition in vivo at 1000 µmol/kg is less than 1%.

With `CCCCN1C(=O)CN(S(=O)(=O)c2ccc(-n3nc(C)cc3C)cc2)C1=S`, the inhibition in vivo at 1000 µmol/kg came to 1%.

Take `Cc1cc(C(=O)O)nn1-c1ccc(S(=O)(=O)N2CC(=O)N(Cc3ccccc3)C2=S)cc1`: the inhibition in vivo at 1000 µmol/kg was less than 1%.

Consider `Cc1cc(C(=O)O)nn1-c1ccc(S(=O)(=O)N2CC(=O)N(C3CCCCC3)C2=S)cc1`, for which the inhibition in vivo at 1000 µmol/kg was 1%.

Regarding `CCCN1C(=O)CN(S(=O)(=O)c2ccc(-n3nc(C)cc3C)cc2)C1=S`, the inhibition in vivo at 1000 µmol/kg was less than 1%.

With `Cc1cc(C)n(-c2ccc(S(=O)(=O)N3CC(=O)N(c4ccccc4)C3=S)cc2)n1`, the inhibition in vivo at 1000 µmol/kg is 8%.
